Data as given in patent US20220177490A1, “COMPOUNDS HAVING BOTH EFFECTS OF BET BROMODOMAIN PROTEIN INHIBITION AND PD-L1 GENE REGULATION” (priority 2019, published 2022).
pIC50: −log10 of the molar value. Where two headings read alike, the source gives them in different places. Each block holds one compound with its values, some of them ahead of it.

Key:
BRD4-1 (BRD4 BD1) = target: T1, BRD4-1 (BRD4 BD1) (Homo sapiens, UniProt O60885); assay: AlphaScreen binding assay of BRD4 biochemical activity (BD1); conditions: BD1, first value of cell; 10 concentrations, single well, initial 10 μM, 3-fold dilution
T1 construct: BRD4 (BD1, BD2)
Procedure: (§1) Test 1: IC50 characterization of the compounds at 10 concentrations.
(§2) The compounds were evaluated for IC50 against two BRD (BRD4-1, BRD4-2) at 10 concentrations, single well.
(§3) Buffer composition for BRD: 50 mM HEPES-HCl, pH7.5, 100 mM NaCl, 0.1% BSA, 0.05% CHAPS, and 1% DMSO.
(§4) Assay: AlphaScreen binding assay (Ex/Em=680/520-620 nm)
(§5) 2.1 4×BRD was added into wells of a reaction plate, except for control wells without BRD, in which BRD was replaced with a buffer.
(§6) 2.2 A solution of the compounds in 100% DMSO was added to the BRD mixture using Acoustic Technology (Echo550, nanoliter level). The mixture was centrifuged, shaken gently at room temperature, and pre-incubated for 30 minutes.
(§7) 2.3 4× ligand was added, and the mixture was centrifuged and shaken.
(§8) 2.4 The mixture was shaken gently and incubated at room temperature for 30 minutes.
(§9) 2.5 4× donor beads were added in the dark, and the mixture was centrifuged and shaken.
(§10) 2.6 4× acceptor beads were added in the dark, and the mixture was centrifuged and shaken gently in the dark for 60 minutes.
(§11) 2.7 The Alpha assay was carried out using Enspire (Ex/Em=680/520-620 nm)
(§12) The four-parameter fitting was performed by GraphPadPrism4 software using the following formula to obtain an IC50 fitting curve:
(§13) Y=minimum+(maximum−minimum)/(1+10^((Log IC50−X)*HillSplope))
(§14) Prism settings: 4-parameter dose-response curve (with variable slope), constrained; minimum=0, maximum=less than 120

BRD4-2 (BRD4 BD2) = target: T2, BRD4-2 (BRD4 BD2) (Homo sapiens, UniProt O60885); assay: AlphaScreen binding assay of BRD4 biochemical activity (BD2); conditions: BD2, second value of cell; 10 concentrations, single well, initial 10 μM, 3-fold dilution
T2 construct: BRD4 (BD1, BD2)
Procedure: as §1, §2, §3, §4, §5, §6, §7, §8, §9, §10, §11, §12, §13, §14

[1] = Pharmacokinetic study in male CD-1 mice, LC/MS/MS of plasma; assay type: in vivo; conditions: mouse; for Vd: read-out: Apparent volume of distribution Vdss; for AUC(0-inf): read-out: Area under curve (0-inf) AUC0-inf; for AUC(0-t): read-out: Area under curve (0-t) AUC0-last; for clearance: read-out: Clearance rate Cl; for half-life: read-out: Half life period T½ (converted); for Cmax: read-out: Drug concentration in blood Cmax; for Tmax: read-out: Peak arrival time Tmax; for bioavailability: read-out: bioavailability F
Procedure: 1.1 Male CD-1 mice were used as test animals, and the LC/MS/MS method was used to determine the drug concentration in plasma of mice at different times after intravenous and intragastric administration of the test compounds. The pharmacokinetic behavior of the compounds of the present disclosure in mice was studied, and the pharmacokinetic characteristics of the compounds of the present disclosure were evaluated.
2.2 Assay animals: Eight healthy adult male CD-1 mice, which were divided into four groups (two for each group) according to the principle of similar body weight. The animals were purchased from Shanghai Sippe-Bk Lab Animal Co., Ltd., with animal production license No. of SCXK (Shanghai) 2018-0006.
A proper amount of samples were weighed, to which a solvent was added. The mixture was stirred with ultrasound to a clear state for intravenous administration.
A proper amount of samples were weighed, to which a solvent was added. The mixture was stirred with ultrasound to a clear state for intragastric administration.
Eight male CD-1 mice were divided into four groups. After one-night fasting, two groups were administered intravenously, and the remaining two groups were administered intragastrically.
After intravenous administration of the test compounds to male CD-1 mice, […] of blood was collected at 0.0833, 0.25, 0.5, 1, 2, 4, 8, and 24 hours, and placed in commercial tubes containing EDTA-K2. After intragastric administration of the test compounds, […] of blood was collected at 0.25, 0.5, 1, 2, 4, 6, 8, and 24 hours, and placed in commercial tubes containing EDTA-K2. The tubes were centrifuged at 3000 g for 15 minutes to separate plasma and stored at −60° C. Animals were fed 2 hours after the administration.
The LC/MS/MS method was used to determine the content of the test compounds in the plasma of mice after intravenous and intragastric administration. The linear range of the method was 2.00-6000 nmol/L; The plasma samples were analyzed after protein precipitation with acetonitrile.

[2] = system: Mouse colon cancer MC38 cells; assay: In vivo efficacy in transplanted tumor model of MC38 mouse colon cancer cells; conditions: C57BL/6 mice, 18 days of administration
Procedure: Mouse colon cancer MC38 cells (Art. No. HYC3401) were cultured in vitro in single layer under the conditions of DMEM containing 10% fetal bovine serum and 37° C. 5% CO2 incubator. Trypsin-EDTA was used for routine digestion and passage. When the cells were in exponential growth phase and the saturation was 80%-90%, the cells were collected and counted.
Cells were re-suspended in DPBS at a density of […]. 0.1 mL DPBS (containing 2×10^5 MC38 cells) was subcutaneously inoculated into the right back of each mouse. When average tumor volume reached ˜63 mm^3, mice were randomly grouped and administered according to tumor volume.
Tumor diameter was measured with vernier caliper three times a week. The calculation formula of tumor volume was as follows: V=0.5×a×b^2, wherein a and b indicated the long and short diameters of a tumor, respectively.
The anti-tumor effect of the compounds was evaluated using TGI (%) or relative tumor proliferation rate T/C (%). Relative tumor proliferation rate T/C (%)=TRTV;/CRTV×100 (TRTV: average RTV for treatment group; CRTV: average RTV for negative control group). According to the results of tumor measurement, relative tumor volume (RTV) was calculated using the formula: RTV=Vt/V0, wherein V0 is the tumor volume measured when grouped and administered (i.e., D0), Vt is the tumor volume at a certain measurement, and the data of TRTV and CRTV on the same day were used.
TGI (%) reflects the rate of tumor growth inhibition. TGI (%)=[(1−(Average tumor volume at the end of administration for a treatment group−Average tumor volume at the beginning of administration for the treatment group))/(Average tumor volume at the end of treatment for a vehicle control group-Average tumor volume at the beginning of treatment for the vehicle control group)]×100.
Statistical analysis was performed using SPSS software based on the relative tumor volume and tumor weight at the end of the test. T-test was used for comparison between two groups and one-way ANOVA was used for comparison among three or more groups. If variance was not neat (significant difference was found in F value), Games-Howell method was used for test. P<0.05 was considered a significant difference.

[3] = system: PAN02 mouse pancreatic cancer cell line; assay: In vivo efficacy in PAN02 tumor model; conditions: C57BL/6 mice, 30 mg/kg intragastrically, day 32
Procedure: The anti-tumor effect of the test compound was investigated on an in vivo tumor model of mouse pancreatic cancer PAN02.
Female C57BL/6 mice were subcutaneously inoculated with PAN02 mouse pancreatic cancer cell line, grouped according to body weight and tumor volume on the 8th day after inoculation, and administered as described below.
(§15) Group 1 (control group): Vehicle control was administered intragastrically at a dose of 0.1 mL/10 g body weight twice a day.
(§16) Group 2: Compound 4 dissolved in (5% DMSO+40% PEG 400+10% Solutol+45% DDH2O) was administered intragastrically at a dose of 30 mg/kg body weight.
(§17) During the assay, the body weight and tumor volume of mice were measured three times a week, and the tumor volume was calculated according to the formula of length×width^2/2. The tumor proliferation rate and tumor inhibition rate were calculated according to the formula: tumor proliferation rate=tumor volume of treatment group/tumor volume of control group×100%; tumor inhibition rate=(tumor volume of control group−tumor volume of treatment group)/tumor volume of control group.
(§18) Student's t-test was used for statistical analysis between groups, and p<0.05 indicated significant difference.

[4] = system: EMT-6 mouse breast cancer cell line; assay: Anti-tumor activity in EMT-6 in vivo tumor model; conditions: EMT-6 model, BALB/C mice, 30 mg/kg intragastrically
Procedure: The anti-tumor effect of the test compound was investigated on an in vivo tumor model of mouse breast cancer EMT-6.
Female BALB/C mice were subcutaneously inoculated with an EMT-6 mouse breast cancer cell line, grouped according to body weight and tumor volume on the 8th day after inoculation, and administered as described below.
as §15, §16
as §17, with “group-tumor” for “group−tumor”
as §18

Structure (SMILES): Cc1sc2c(c1C)C(c1ccc(Cl)cc1)=N[C@@H](CC(=O)Nc1ccc3c(c1)CC1CON=C31)c1nnc(C)n1-2 (some centres unmarked) [Compound 3]
pIC50 (BRD4-1 (BRD4 BD1)): 7.57
pIC50 (BRD4-2 (BRD4 BD2)): 8.35

Structure (SMILES): Cc1sc2c(c1C)C(c1ccc(Cl)cc1)=N[C@@H](CC(=O)Nc1ccc3c(c1)Cn1ccnc1-3)c1nnc(C)n1-2 [Compound 12]
pIC50 (BRD4-1 (BRD4 BD1)): 7.74
pIC50 (BRD4-2 (BRD4 BD2)): 8.70

Structure (SMILES): Cc1sc2c(c1C)C(c1ccc(Cl)cc1)=N[C@@H](CC(=O)Nc1ccc3c(c1)CO/C3=N\OC(F)F)c1nnc(C)n1-2 [Compound 11]
pIC50 (BRD4-1 (BRD4 BD1)): 7.14
pIC50 (BRD4-2 (BRD4 BD2)): 8.41
Vd ([1]; intravenous, 1 mg/kg): 2.21 L/kg
AUC(0-inf) ([1]; intravenous, 1 mg/kg): 2.44 µM·h
AUC(0-t) ([1]; intravenous, 1 mg/kg): 2.26 µM·h
clearance ([1]; intravenous, 1 mg/kg): 11.5 mL/min/kg
half-life ([1]; intravenous, 1 mg/kg): 2.16 h
AUC(0-t) ([1]; po, intragastric, 2 mg/kg): 1.31 µM·h
Cmax ([1]; po, intragastric, 2 mg/kg): 115 nM
Tmax ([1]; po, intragastric, 2 mg/kg): 7 h
bioavailability ([1]; po, intragastric, 2 mg/kg): 29%
TGI ([2]; 20 mpk p.o. BID): 54.16%
TGI ([2]; 50 mpk p.o. BID): 84.11%

Structure (SMILES): Cc1sc2c(c1C)C(c1ccc(Cl)cc1)=N[C@@H](CC(=O)Nc1ccc3c(c1)CO/C3=N\C1COC1)c1nnc(C)n1-2 [Compound 7]
pIC50 (BRD4-1 (BRD4 BD1)): 7.54
pIC50 (BRD4-2 (BRD4 BD2)): 8.22

Structure (SMILES): CO/N=C1\OCc2cc(NC(=O)C[C@@H]3N=C(c4ccc(Cl)cc4)c4c(sc(C)c4C)-n4c(C)nnc43)ccc21 [Compound 4]
pIC50 (BRD4-1 (BRD4 BD1)): 7.55
pIC50 (BRD4-2 (BRD4 BD2)): 8.18
Vd ([1]; intravenous, 1 mg/kg): 1.84 L/kg
AUC(0-inf) ([1]; intravenous, 1 mg/kg): 2.91 µM·h
AUC(0-t) ([1]; intravenous, 1 mg/kg): 2.71 µM·h
clearance ([1]; intravenous, 1 mg/kg): 10.2 mL/min/kg
half-life ([1]; intravenous, 1 mg/kg): 2.05 h
AUC(0-t) ([1]; po, intragastric, 2 mg/kg): 1.61 µM·h
Cmax ([1]; po, intragastric, 2 mg/kg): 262 nM
Tmax ([1]; po, intragastric, 2 mg/kg): 4 h
bioavailability ([1]; po, intragastric, 2 mg/kg): 29.6%
TGI ([2]; 20 mpk p.o. BID): 85.90%
TGI ([2]; 50 mpk p.o. BID): 97.66%
tumor proliferation rate [3]: 37.61%
tumor proliferation rate ([4]; Day 19): 23.92%
tumor proliferation rate ([4]; end of the assay): 36.79%

Second part, the compound after the results:

pIC50 (BRD4-1 (BRD4 BD1)): 7.36
pIC50 (BRD4-2 (BRD4 BD2)): 8.15
Structure (SMILES): CCO/N=C1\OCc2cc(NC(=O)C[C@@H]3N=C(c4ccc(Cl)cc4)c4c(sc(C)c4C)-n4c(C)nnc43)ccc21 [Compound 9]

pIC50 (BRD4-1 (BRD4 BD1)): 7.88
pIC50 (BRD4-2 (BRD4 BD2)): 8.65
Structure (SMILES): Cc1sc2c(c1C)C(c1ccc(Cl)cc1)=N[C@@H](CC(=O)Nc1ccc3c(c1)CO/C3=N\N(C)C)c1nnc(C)n1-2 [Compound 13]

pIC50 (BRD4-1 (BRD4 BD1)): 7.32
pIC50 (BRD4-2 (BRD4 BD2)): 8.21
Structure (SMILES): Cc1sc2c(c1C)C(c1ccc(Cl)cc1)=N[C@@H](CC(=O)Nc1ccc3c(c1)CO/C3=N\C#N)c1nnc(C)n1-2 [Compound 2]

pIC50 (BRD4-1 (BRD4 BD1)): 7.31
pIC50 (BRD4-2 (BRD4 BD2)): 8.13
Structure (SMILES): Cc1sc2c(c1C)C(c1ccc(Cl)cc1)=N[C@@H](CC(=O)Nc1ccc3c(c1)CO/C3=N\O)c1nnc(C)n1-2 [Compound 1]

pIC50 (BRD4-1 (BRD4 BD1)): 7.07
pIC50 (BRD4-2 (BRD4 BD2)): 7.82
Structure (SMILES): Cc1sc2c(c1C)C(c1ccc(Cl)cc1)=N[C@@H](CC(=O)Nc1ccc3c(c1)CO/C3=N\OC(C)C)c1nnc(C)n1-2 [Compound 8]

pIC50 (BRD4-1 (BRD4 BD1)): 7.57
pIC50 (BRD4-2 (BRD4 BD2)): 8.45
Structure (SMILES): COCCO/N=C1\OCc2cc(NC(=O)C[C@@H]3N=C(c4ccc(Cl)cc4)c4c(sc(C)c4C)-n4c(C)nnc43)ccc21 [Compound 10]
